Holding throughout (format): physicochemical
Data set [1] in a line: Photo stability of bulk substance (Suntest CPS+ cabinet).
Method: The exposure was 250 Wh/m^2 and 1.2 million lux hours over 29 hours.
Data set [2] can be described thus: Solution stability (isotonic solution, HPLC analysis). Particulars: 0.1 mg/ml isotonic solution, ascorbic acid 0.5% (w/v), pH 2 and 4, stored four weeks at 4 to 8° C.; citrate salt.
A short description of data set [3]: Hygroscopicity by Dynamic Vapour Sorption Analysis (DVS). The following applies: 25° C., citrate salt. How it is done:
Dynamic Vapour Sorption Analysis (DVS)
The studies were undertaken using Dynamic Vapour Sorption Appararatus (DVS, Surface Measurement Systems, London UK). The apparatus consists of Cahn micobalance housed inside a temperature-controled cabinet. All experiments were performed at 25° C. The DVS was used to characterize the moisture uptake (w/w %) at different relative humidities (RH). Samples (5-10 mg) were weighed directly into the DSV sample cup and exposed to different relative humidities.

The mark [4] stands for this setting: 29 hours control sample (stored in the dark).
Setting [5] is: exposure time 29 hours, 250 Wh/m^2 and 1.2 million lux hours.

This is an account of results in patent US8008294B2 (AstraZeneca AB, priority 2006, dated 2011).

Where a name gives a salt, the structure may show the parent alone.

For the compound `N#Cc1ccc2[nH]c(O)c(-c3ccc(CN4CCOCC4)cn3)c2c1` [Citrate, 2-Hydroxy-3-[5-(morpholin-4-ylmethyl)pyridin-2-yl]1H-indole-5-carbonitrile citrate salt], the “photo stability of bulk substance” value is given as 99.1 in data set [1] (29 hours control sample (stored in the dark), citrate salt); 99.0 in data set [1] (exposure time 0 hours, citrate salt); 98.1 in data set [1] (exposure time 29 hours, 250 Wh/m^2 and 1.2 million lux hours, citrate salt). In data set [2], the degradation in solution result is reported as “no degradation products”. Besides, the moisture uptake in data set [3] (40% relative humidity) is listed as 7.1 w/w %; in data set [3] (60% relative humidity) it was 7.6 w/w %; in data set [3] (80% relative humidity), 8.0 w/w %.
Consider `N#Cc1ccc2[nH]c(O)c(-c3ccc(CN4CCOCC4)cn3)c2c1` [Free base, 2-Hydroxy-3-[5-(morpholin-4-ylmethyl)pyridin-2-yl]1H-indole-5-carbonitrile], for which the “photo stability of bulk substance” value in data set [1] (setting [4]) turned out to be 96.1; in data set [1] (exposure time 0 hours) it was 96.6; in data set [1] (setting [5]) it was 83.8.
In the same order, the values of `N#Cc1ccc2[nH]c(O)c(-c3ccc(CN4CCOCC4)cn3)c2c1` [HCl] are 97.7, 97.5 and 89.0.
